Earlier results as cited in patent publication US20040167355A1, “Hydrocarbon products and methods of preparing hydrocarbon products” (priority 2003, published 2004).

Legend:
[1] = 25° C.; 450 ppm surfactant, 420 ppm hardness (3:1 Ca++:Mg++)
[2] = 1% solution of the sodium salt of the surfactant

Row | Structure (SMILES) | loss of surfactant in hard water [1] | Krafft temperature [2]
1 | CCCCCCCC(C)CCC(C)c1ccc(S(=O)(=O)O)cc1 (stereo not shown) [5-Methyl-2-Phenyl Dodecyl Benzene Sulfonate] | 5% | 16 °C
2 | CCCCCCCCCCC(C)c1ccc(S(=O)(=O)O)cc1 (stereo not shown) [2-Phenyl Dodecyl Benzene Sulfonate] | 100% | 36 °C
